Tested on: L. major lysate proteins
Assay: Multitargeted bead mixture chemoproteomics, single concentration competition, proteome-wide
Assay type: binding
Conditions: for fold change: vehicle control = 1

For `Nc1nc2c(c(=O)[nH]1)N(C=O)C(CNc1ccc(C(=O)N[C@@H](CCC(=O)O)C(=O)O)cc1)CN2` (stereo partly drawn) [LEU, leucovorin], the “fold change vs vehicle control” value (protein LMJF.15.0690 HY[…], CONSERVED) was 1.14, the fold change (protein LMJF.15.1010 GLUTAMATE DEHYDROGENASE) was 0.98 and the fold change (protein LMJF.15.1190 HYPOTHETICAL PROTEIN, CONSERVED (cyclic nucleotide-binding domain containing protein, putative)) was 0.96. For the same compound, the “fold change vs vehicle control” value (protein LMJF.16.0520 HYPOTHETICAL PROTEIN, CONSERVED) was 1.1, the “fold change vs vehicle control” value (protein LMJF.16.0540 ASPARTATE CARBAMOYLTRANSFERASE, PUTATIVE) was 0.98 and the “fold change relative to vehicle control” value (protein LMJF.16.0760, TRANSALDOLASE, PUTATIVE) was 1.22. The “fold change vs vehicle control” value (protein LMJF.16.0940 DYNEIN LIGHT CHAIN, PUTATIVE) was 1.06, the “fold change relative to vehicle control” value (protein LMJF.16.1180, COATOMER DELTA SUBUNIT-LIKE PROTEIN) was 1.21 and the “fold change relative to vehicle control” value (protein LMJF.16.1320, CYTOCHROME C, PUTATIVE) was 2.28. For the same compound, the “fold change relative to vehicle control” value (protein LMJF.16.1420, HY[…], CONSERVED) was 1.01, the “fold change relative to vehicle control” value (protein LMJF.17.0081, […] 1-ALPHA) was 1.09 and the “fold change relative to vehicle control” value (protein LMJF.18.0270, GLYCOGEN SYNTHASE KINASE, PUTATIVE) was 0.57. The fold change (protein LMJF.18.0580 P[…]-COA HYDRATASE, PUTATIVE) was 1.02, the “fold change relative to vehicle control” value (protein LMJF.18.0680, CITRATE SYNTHASE, PUTATIVE) was 1.15 and the “fold change vs vehicle control” value (protein LMJF.18.1010 DYNEIN LIGHT CHAIN 2B, CYTOPLASMIC, PUTATIVE) was 0.99. For the same compound, the “fold change vs vehicle control” value (protein LMJF.18.1210 PROLYL-TRNA SYNTHETASE, PUTATIVE,BI[…]-TRNA SYNTHETASE, PUTATIVE) was 1.38, the “fold change vs vehicle control” value (protein LMJF.18.1370 HEAT SHOCK PROTEIN, PUTATIVE) was 0.99 and the fold change (protein LMJF.19.0200 ADP,ATP CARRIER PROTEIN 1, MIT[…], PUTATIVE) was 1.01. For the same compound, the “fold change vs vehicle control” value (protein LMJF.19.1120 PROTEASOME REGULATORY NON-ATP-ASE SUBUNIT, PUTATIVE) was 0.93, the “fold change vs vehicle control” value (protein LMJF.19.1160 HYPOTHETICAL PROTEIN, CONSERVED) was 0.87 and the “fold change vs vehicle control” value (protein LMJF.19.1560 INOSINE-5'-MONOPHOSPHATE DEHYDROGENASE) was 1.06. For the same compound, the “fold change relative to vehicle control” value (protein LMJF.19.1620, POTASSIUM VOLTAGE-GATED CHANNEL, PUTATIVE) was 1.08, the “fold change vs vehicle control” value (protein LMJF.20.1280 SMALL MYRISTOYLATED PROTEIN 4, PUTATIVE) was 0.97 and the fold change (protein LMJF.21.0810 METHIONYL-TRNA SYNTHETASE, PUTATIVE) was 1.03. For the same compound, the fold change (protein LMJF.21.1450 ARGININE N-METHYLTRANSFERASE, TYPE II, PUTATIVE) was 1.01, the “fold change vs vehicle control” value (protein LMJF.21.1830 […] 5 SUBUNIT, PUTATIVE,20S […] ALPHA 5, (PUTATIVE)) was 1.06 and the fold change (protein LMJF.22.0230 AMINO ACID PERMEASE, PUTATIVE) was 0.86. For the same compound, the “fold change vs vehicle control” value (protein LMJF.22.0570 PROTEASOME REGULATORY ATPASE SUBUNIT 1, PUTATIVE) was 0.98, the “fold change vs vehicle control” value (protein LMJF.22.0730 HY[…], CONSERVED) was 1.05 and the fold change (protein LMJF.22.0770 NADH-CYTOCHROME B5 REDUCTASE, PUTATIVE) was 1.02. The “fold change relative to vehicle control” value (protein LMJF.23.0020, HY[…], CONSERVED) was 1.09, the “fold change relative to vehicle control” value (protein LMJF.23.0040, PEROXIDOXIN) was 1.41 and the “fold change relative to vehicle control” value (protein LMJF.23.0080, HY[…], CONSERVED) was 1.07. For the same compound, the fold change (protein LMJF.23.0210 ATP-BINDING CASSETTE PROTEIN SUBFAMILY C, MEMBER 1, PUTATIVE) was 0.88, the fold change (protein LMJF.23.0370 CYTOCHROME C OXIDASE SUBUNIT 10, PUTATIVE) was 0.88 and the “fold change relative to vehicle control” value (protein LMJF.23.0540, ACETYL-COA SYNTHETASE, PUTATIVE) was 1.24. The “fold change vs vehicle control” value (protein LMJF.23.0560 KINESIN, PUTATIVE) was 1.03, the “fold change vs vehicle control” value (protein LMJF.23.1410 HY[…], CONSERVED) was 1.01 and the “fold change relative to vehicle control” value (protein LMJF.24.0070, HYPOTHETICAL PROTEIN, CONSERVED) was 0.98. For the same compound, the fold change (protein LMJF.24.0140 ANKYRIN/TPR REPEAT PROTEIN) was 0.96, the fold change (protein LMJF.24.0400 HY[…], CONSERVED (TPR repeat, putative)) was 1.02 and the “fold change relative to vehicle control” value (protein LMJF.24.1510, IGE-DEPENDENT HISTAMINE-RELEASING FACTOR, PUTATIVE) was 1.54. The “fold change relative to vehicle control” value (protein LMJF.24.1630, SUCCINATE DEHYDROGENASE FLAVOPROTEIN, PUTATIVE) was 1.06, the “fold change relative to vehicle control” value (protein LMJF.24.2060, TRANSKETOLASE) was 0.92 and the “fold change relative to vehicle control” value (protein LMJF.25.0010, BETA […] TRANSFERASE) was 1.41. The “fold change relative to vehicle control” value (protein LMJF.25.0910, CYCLOPHILIN A) was 2.65, the “fold change vs vehicle control” value (protein LMJF.25.1130 […] OXIDASE VII, PUTATIVE) was 1.08 and the “fold change relative to vehicle control” value (protein LMJF.25.1180, ATPASE BETA SUBUNIT, PUTATIVE) was 1.04. For the same compound, the “fold change vs vehicle control” value (protein LMJF.25.1610 HY[…], CONSERVED) was 1.03, the “fold change vs vehicle control” value (protein LMJF.25.1620 HYPOTHETICAL PROTEIN, CONSERVED) was 0.97 and the fold change (protein LMJF.25.2340 SERINE/THREONINE-PROTEIN KINASE, PUTATIVE,PROTEIN KINASE, PUTATIVE) was 0.76. For the same compound, the “fold change relative to vehicle control” value (protein LMJF.26.0630, HY[…], CONSERVED) was 1.23, the “fold change vs vehicle control” value (protein LMJF.26.1240 HEAT SHOCK PROTEIN 70-RELATED PROTEIN) was 1.1 and the fold change (protein LMJF.26.1710 CYTOCHROME C OXIDASE SUBUNIT V, PUTATIVE) was 0.98. The “fold change vs vehicle control” value (protein LMJF.26.2480 CDP-DIACYLGLYCEROL--INOSITOL 3-PHOSPHATIDYLTRANSFERASE, PUTATIVE) was 0.94, the “fold change vs vehicle control” value (protein LMJF.26.2560 HYPOTHETICAL PROTEIN, CONSERVED) was 0.91 and the “fold change vs vehicle control” value (protein LMJF.27.0190 […] 7 SUBUNIT, PUTATIVE) was 1.06. For the same compound, the fold change (protein LMJF.27.0650 HYPOTHETICAL PROTEIN, CONSERVED) was 0.98, the fold change (protein LMJF.27.0700 HYPOTHETICAL PROTEIN, CONSERVED) was 0.69 and the “fold change vs vehicle control” value (protein LMJF.27.0760 GTP-binding protein homologue) was 1.15. The “fold change vs vehicle control” value (protein LMJF.27.1060 CYSTEINE DESULFURASE, PUTATIVE) was 1.03, the “fold change vs vehicle control” value (protein LMJF.27.1110 MITOCHONDRIAL RNA BINDING PROTEIN 1,GBP21, MRP1) was 0.96 and the fold change (protein LMJF.27.1250 HYPOTHETICAL PROTEIN, CONSERVED (Serine-threonine kinase receptor-associated protein, putative)) was 0.88. For the same compound, the “fold change relative to vehicle control” value (protein LMJF.27.1390, 60S ACIDIC RIBOSOMAL SUBUNIT PROTEIN, PUTATIVE) was 1.11, the fold change (protein LMJF.27.1460 PROTEASOME REGULATORY NON-ATP-ASE SUBUNIT 3, PUTATIVE) was 0.97 and the “fold change vs vehicle control” value (protein LMJF.28.0110 […] 3 SUBUNIT, PUTATIVE) was 1.08.

— paper PMC6199744, “Development of Chemical Proteomics for the Folateome and Analysis of the Kinetoplastid Folateome” (ACS Infectious Diseases, 2018)
